Experimental data taken from US20260014119A1, “EMOPAMIL-BINDING PROTEIN INHIBITORS AND USES THEREOF” (BIOGEN MA INC., priority 2022, published 2026).

Each compound was assayed against T1, EBP (Homo sapiens, UniProt Q15125) (assay: EBP Functional Assay (EBP immunoaffinity LC-MS assay)). Details: EBP enzyme from HEK293T cells; 30 min with inhibitor, then zymosterol-d5 at 37° C. for 4 h; percent conversion by LC-APCI MRM MS.
T1 construct: HEK293T cells were utilized as the source of EBP enzyme; endogenous in cells; host or cells: HEK293T
T1 sequence (Q15125 whole entry): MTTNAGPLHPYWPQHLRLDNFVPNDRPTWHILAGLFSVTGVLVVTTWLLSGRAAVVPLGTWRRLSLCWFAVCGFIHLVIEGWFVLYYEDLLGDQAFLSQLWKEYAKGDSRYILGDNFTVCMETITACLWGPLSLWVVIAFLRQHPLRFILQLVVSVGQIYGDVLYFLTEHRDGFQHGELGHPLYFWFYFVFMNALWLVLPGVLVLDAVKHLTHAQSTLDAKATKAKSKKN
Assay type: biochemical
Protocol: The EBP immunoaffinity (IA) LC-MS assay measures the potency of small molecule inhibitors of EBP by quantifying their concentration-dependent changes in the enzyme's substrate and product using liquid chromatography atmospheric pressure chemical ionization multiple reaction monitoring mass spectrometry (LC-APCI MRM MS). HEK293T cells were utilized as the source of EBP enzyme. The enzyme was incubated with the small molecule inhibitors at variable concentrations for 30 min. Deuterated form of EBP substrate, zymosterol-d5 (Avanti Polar Lipids, Cat #700068P-1 mg), was then added and the plate was incubated at 37° C. for 4 h. Finally, the sterol isomers were extracted and injected to LC-APCI MRM MS. MRM transition used for the quantification for both zymosterol and […] (substrate and product of EBP enzymatic reaction, respectively) is 372.3-203.2, CE 30 and DP 80 in positive ion mode. Percent conversion of the zymosterol-d5 to dehydrolathosterol-d5 was used to derive IC50 curves. Tasin-1 (1′-[(4-Methoxyphenyl)sulfonyl]-4-methyl-1,4′-bipiperidine, CAS 792927-06-1) was used as the reference small molecule inhibitor.
Percent conversion versus the compound concentration data were fit to the following 4-parameter logistic model to generate IC50 curves: […]
For `O=S(=O)(c1cc(F)cc(F)c1)N1C[C@H]2CN(C3CCOCC3)C[C@H]2C1` [Example 39, (3aR,6aS)-2-((3,5-Difluorophenyl)sulfonyl)-5-(tetrahydro-2H-pyran-4-yl)octahydropyrrolo[3,4-c]pyrrole], the IC50 was 0.1 to 0.5 µM.
In the case of `Cc1nc(C(F)(F)F)ccc1S(=O)(=O)N1C[C@H]2CN(C3CCOCC3)C[C@@H]2C1` [Example 45, (3aR,6aR)-2-((2-Methyl-6-(trifluoromethyl)pyridin-3-yl)sulfonyl)-5-(tetrahydro-2H-pyran-4-yl)octahydropyrrolo[3,4-c]pyrrole], the IC50 is reported as 0.1 to 0.5 µM.
`Cn1nc(C(F)(F)F)cc1S(=O)(=O)N1C[C@H]2CN(C3CCOCC3)C[C@@H]2C1` [Example 46, (3aR,6aR)-2-((1-Methyl-3-(trifluoromethyl)-1H-pyrazol-5-yl)sulfonyl)-5-(tetrahydro-2H-pyran-4-yl)octahydropyrrolo[3,4-c]pyrrole] showed an IC50 of 0.1 to 0.5 µM.
Compound `Cc1cc(S(=O)(=O)N2C[C@H]3CN(C4CCOCC4)C[C@H]3C2)n(C)n1` [Example 49, Rac-(3aR,6aS)-2-((1,3-dimethyl-1H-pyrazol-5-yl)sulfonyl)-5-(tetrahydro-2H-pyran-4-yl)octahydropyrrolo[3,4-c]pyrrole] has an IC50 of over 0.5 µM.
`Cc1nc(C(F)(F)F)nc(C)c1S(=O)(=O)N1C[C@H]2CN(C3CCOCC3)C[C@@H]2C1` [Example 60, (3aR,6aR)-2-((4,6-dimethyl-2-(trifluoromethyl)pyrimidin-5-yl)sulfonyl)-5-(tetrahydro-2H-pyran-4-yl)octahydropyrrolo[3,4-c]pyrrole] gave an IC50 of under 0.1 µM.
`Cc1nc(C(F)(F)F)nc(C)c1S(=O)(=O)N1C[C@H]2CN(C3CC4(COC4)C3)C[C@@H]2C1` [Example 61, (3aR,6aR)-2-((4,6-dimethyl-2-(trifluoromethyl)pyrimidin-5-yl)sulfonyl)-5-(2-oxaspiro[3.3]heptan-6-yl)octahydropyrrolo[3,4-c]pyrrole] was tested, and the IC50 was under 0.1 µM.
In the case of `Cc1nc(C(F)(F)F)nc(C)c1S(=O)(=O)N1C[C@H]2CN(CC3CCOCC3)C[C@@H]2C1` [Example 62, (3aR,6aR)-2-((4,6-dimethyl-2-(trifluoromethyl)pyrimidin-5-yl)sulfonyl)-5-((tetrahydro-2H-pyran-4-yl)methyl)octahydropyrrolo[3,4-c]pyrrole], the IC50 is reported as under 0.1 µM.
